The source of these data is article PMC12036814 (Angewandte Chemie (International Ed. in English), 2025).

Read-outs that look alike come from different tables or passages of the source.

Test in all cases: Thermal protein profiling (TPP) in intact HEK293 cells
Type in all cases: cell-based
Holding throughout (conditions): 1 h

One test concerns the target T1, ADAL (Homo sapiens, UniProt Q6DHV7).
T1 construct: endogenous in cells; host or cells: HEK293
T1 sequence (Q6DHV7 1-355): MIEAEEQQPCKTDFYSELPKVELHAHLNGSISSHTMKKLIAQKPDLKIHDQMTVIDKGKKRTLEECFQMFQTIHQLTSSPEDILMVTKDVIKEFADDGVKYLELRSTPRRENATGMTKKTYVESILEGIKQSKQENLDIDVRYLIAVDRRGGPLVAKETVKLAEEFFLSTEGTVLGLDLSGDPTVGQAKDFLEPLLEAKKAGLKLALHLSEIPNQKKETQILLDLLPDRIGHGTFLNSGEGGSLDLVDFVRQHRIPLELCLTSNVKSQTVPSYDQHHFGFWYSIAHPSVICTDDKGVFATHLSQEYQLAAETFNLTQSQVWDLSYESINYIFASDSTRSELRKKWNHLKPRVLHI
Here is the method: (§1) incubated in a thermoshaker (600 rpm, 16 h, 37 °C). The digest was stopped by adding 10 μL formic
(§2) acid (FA) and vortexing followed by centrifugation (12,000 ×g, 3 min, room temperature). 50 mg
(§3) SepPak C18 columns (Waters, Milford, USA, Cat# WAT054960) were equilibrated by gravity flow two
(§4) times with 1 mL acetonitrile and three times with 1 mL aqueous 0.1% trifluoroacetic acid (TFA) solution.
(§5) Subsequently, the samples were loaded by gravity flow, washed three times with 1 mL aqueous 0.1%
(§6) TFA solution and once with 0.5 mL aqueous 0.5% formic acid (F A) solution. Elution of peptides into
(§7) new 2.0 mL Protein LoBind Eppendorf tubes was performed by two times addition of 250 μL elution
(§8) buffer (80% acetonitrile, 0.5% FA) by gravity flow followed by 250 μL elution buffer by vacuum flow
(§9) until all liquid was eluted from the column. The eluates were lyophilized. Before MS measurement the
(§10) (brief centrifugation after each step).
(§11) Thermal protein profiling (TPP)
(§12) The experiment was performed similarly to TPP-TR experiments described by Franken et al. with minor
(§13) modifications.5 HEK293 cells were grown in 8 T175 flasks to approx. 80-90% confluency. Per replicate
(§14) volume of 0.1 N HCl as vehicle control. Per condition two replicates were used, leading to a total of 8
(§15) T175 flasks. The cells were washed with PBS, detached with accutase, the two flask per replicate
(§16) condition combined and the cells pelletized (500 ×g, 3 min, r.t.). The medium was removed and each
(§17) pellet (Cipro #1, Cipro #2, Ctrl. #1, Ctrl #2) washed twice with cold PBS. Each pellet was resuspended
(§18) depending on the sample. The cell suspension of each sample was distributed into 10 PCR tubes
(§19) (100 µL per tube), resulting in 10 stripes á 4 tubes (2×2 conditions, 10 temperature points). The PCR
(§20) tubes were subjected to the temperature gradient using a PCR cycler.
(§21) limitations, two separate programs had to be run to cover the desired temperature range (see
(§22) Table S4). The PCR tubes were heat-treated according to the two programs for 3 min and directly snap
(§23) frozen in liquid nitrogen.
(§24) manufacturer instructions.

The target of the next test is T2, FAM171A2 (Homo sapiens, UniProt A8MVW0).
T2 construct: endogenous in cells; host or cells: HEK293
How it is done: as §1, §2, §3, §4, §5, §6, §7, §8, §9, §10, §11, §12, §13, §14, §15, §16, §17, §18, §19, §20, §21, §22, §23, §24

A further test has as its target T3, RAP1A (Homo sapiens, UniProt P62834).
T3 construct: endogenous in cells; host or cells: HEK293
T3 sequence (P62834 1-184): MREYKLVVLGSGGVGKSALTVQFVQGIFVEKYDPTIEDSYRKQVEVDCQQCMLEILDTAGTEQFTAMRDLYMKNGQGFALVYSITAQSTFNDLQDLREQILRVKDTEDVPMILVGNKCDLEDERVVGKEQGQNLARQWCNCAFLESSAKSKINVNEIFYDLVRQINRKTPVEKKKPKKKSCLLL
How it is done: as §1, §2, §3, §4, §5, §6, §7, §8, §9, §10, §11, §12, §13, §14, §15, §16, §17, §18, §19, §20, §21, §22, §23, §24

The next test addresses T4, SMG7 (Homo sapiens, UniProt Q92540).
T4 construct: endogenous in cells; host or cells: HEK293
T4 sequence (Q92540 1-1137): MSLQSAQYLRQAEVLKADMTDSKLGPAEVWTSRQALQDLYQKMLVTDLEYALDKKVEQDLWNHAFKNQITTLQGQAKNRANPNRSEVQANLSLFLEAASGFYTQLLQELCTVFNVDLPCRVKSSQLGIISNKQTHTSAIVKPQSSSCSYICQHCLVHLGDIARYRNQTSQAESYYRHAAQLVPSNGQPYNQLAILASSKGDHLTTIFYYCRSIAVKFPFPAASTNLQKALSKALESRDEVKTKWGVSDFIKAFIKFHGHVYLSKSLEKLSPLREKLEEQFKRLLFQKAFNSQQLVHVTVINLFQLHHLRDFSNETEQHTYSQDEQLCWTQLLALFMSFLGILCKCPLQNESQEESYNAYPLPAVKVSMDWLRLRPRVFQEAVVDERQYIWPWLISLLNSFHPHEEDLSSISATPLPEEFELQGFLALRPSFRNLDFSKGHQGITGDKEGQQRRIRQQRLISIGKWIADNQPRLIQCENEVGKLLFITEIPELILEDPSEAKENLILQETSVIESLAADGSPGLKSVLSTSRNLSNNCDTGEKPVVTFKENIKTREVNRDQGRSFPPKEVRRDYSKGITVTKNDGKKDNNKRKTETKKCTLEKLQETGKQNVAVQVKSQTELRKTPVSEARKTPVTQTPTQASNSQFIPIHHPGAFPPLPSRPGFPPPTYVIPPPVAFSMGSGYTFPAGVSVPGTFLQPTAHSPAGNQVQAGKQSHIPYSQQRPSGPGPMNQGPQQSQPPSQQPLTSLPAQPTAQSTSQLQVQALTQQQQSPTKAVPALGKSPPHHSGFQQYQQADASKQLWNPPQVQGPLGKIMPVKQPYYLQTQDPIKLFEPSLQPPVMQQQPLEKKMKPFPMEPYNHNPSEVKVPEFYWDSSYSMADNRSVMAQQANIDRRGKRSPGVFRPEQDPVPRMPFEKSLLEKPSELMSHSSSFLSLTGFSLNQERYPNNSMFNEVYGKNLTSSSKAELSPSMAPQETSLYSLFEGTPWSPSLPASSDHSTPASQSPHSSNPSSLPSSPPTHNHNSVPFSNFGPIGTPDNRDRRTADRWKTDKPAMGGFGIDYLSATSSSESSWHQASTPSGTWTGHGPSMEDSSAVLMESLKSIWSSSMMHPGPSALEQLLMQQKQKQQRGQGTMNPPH
Here is the method: as §1, §2, §3, §4, §5, §6, §7, §8, §9, §10, §11, §12, §13, §14, §15, §16, §17, §18, §19, §20, §21, §22, §23, §24

In general, ΔTm refers to the shift of the melting midpoint relative to a reference. `O=C(O)c1cn(C2CC2)c2cc(N3CCNCC3)c(F)cc2c1=O` [Ciprofloxacin]: the ΔTm at 70 µM was 5.91 °C on ADAL (read-out: ΔTm Rep. 1); 6.21 °C at ADAL (read-out: ΔTm Rep. 2); 5.82 °C on FAM171A2 (read-out: ΔTm Rep. 1); 3.92 °C at FAM171A2 (read-out: ΔTm Rep. 2); 1.79 °C on RAP1A (read-out: ΔTm Rep. 1); 2.89 °C on RAP1A (read-out: ΔTm Rep. 2). Also, the ΔTm at 70 µM at SMG7 (read-out: ΔTm Rep. 1) was 1.67 °C; on SMG7 (read-out: ΔTm Rep. 2) it was 3.28 °C.
